Data reported in patent US20110015181A1, “ALKYLAMINOPYRIDINE DERIVATIVE” (priority 2008, published 2011).

Assays:
human NPY Y1 receptor = target: T1, human NPY Y1 receptor (Homo sapiens, UniProt P25929); assay: NPY binding inhibition test ([125I] peptide YY binding to membranes of NPY Y1 receptor expression cells); settings: membrane of CHO-K1 cells expressing human NPY Y1 receptor, 25° C., 2 hours; read-out: IC50 against specific [125I] peptide YY binding
T1 construct: expressed in transfected cells; host or cells: CHO-K1 NFAT β-Lactamase (Aurora)
T1 sequence (P25929 1-384): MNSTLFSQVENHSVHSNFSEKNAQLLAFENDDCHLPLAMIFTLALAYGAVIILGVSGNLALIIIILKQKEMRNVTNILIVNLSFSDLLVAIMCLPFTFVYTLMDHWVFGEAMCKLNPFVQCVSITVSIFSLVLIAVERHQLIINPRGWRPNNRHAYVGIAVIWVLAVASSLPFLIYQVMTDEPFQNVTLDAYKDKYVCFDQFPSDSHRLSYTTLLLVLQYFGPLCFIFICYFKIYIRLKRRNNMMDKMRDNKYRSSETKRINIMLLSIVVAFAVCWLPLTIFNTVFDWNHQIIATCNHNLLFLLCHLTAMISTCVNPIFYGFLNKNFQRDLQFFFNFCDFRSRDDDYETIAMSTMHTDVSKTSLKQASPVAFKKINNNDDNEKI
Procedure: A cDNA sequence encoding a human NPY Y1 receptor [Accession No. L07615] was cloned into expression vectors pEF1x (made by Invitrogen Inc.). The obtained expression vectors were transfected to host cells CHO-K1 NFAT β-Lactamase (Aurora) by cationic lipid method [see Proceedings of the National Academy of Sciences of the United States of America, 84: 7413 (1987)] to give NPY Y1 receptor expression cells.
A membrane sample prepared from the cells which expressed the NPY Yl receptor was incubated together with a test compound and [^125I] peptide YY (manufactured by Amersham) (20,000 cpm) in an assay buffer (HBSS buffer (pH 7.4) containing 20 mM HEPES, 0.5% BSA, 1 mM phenylmethylsulfonylfluoride and 0.1% bacitracin) at 25° C. for 2 hours, then filtered through a glass filter GF/C, and washed with 20 mM HEPES buffer (pH 7.4), followed by measuring the radioactivity of the cake on the glass filter with γ counter. Nonspecific binding was measured in the presence of 1 μM peptide YY and a 50% Inhibitory Concentration (IC50) of the test compound against specific [^125I] peptide YY binding was determined [Endocrinology, 131: 2090 (1992)].

human ERG (hERG) = human ERG (hERG) (Homo sapiens, UniProt Q12809); assay: Affinity for human ERG (hERG); assay type: binding
Procedure: In addition, the affinities of compounds according to the present invention and compounds described in Patent Document 7 described above for human ERG (hERG) were examined. This examination method was carried out according to the method described in documents (for example, Japanese Unexamined Patent Application Publication No. 2004-512268).

[1] = compounds according to the present invention
[2] = compounds described in Patent Document 7 (WO 97/34873)

Sequence of human ERG (hERG) (Q12809 whole entry): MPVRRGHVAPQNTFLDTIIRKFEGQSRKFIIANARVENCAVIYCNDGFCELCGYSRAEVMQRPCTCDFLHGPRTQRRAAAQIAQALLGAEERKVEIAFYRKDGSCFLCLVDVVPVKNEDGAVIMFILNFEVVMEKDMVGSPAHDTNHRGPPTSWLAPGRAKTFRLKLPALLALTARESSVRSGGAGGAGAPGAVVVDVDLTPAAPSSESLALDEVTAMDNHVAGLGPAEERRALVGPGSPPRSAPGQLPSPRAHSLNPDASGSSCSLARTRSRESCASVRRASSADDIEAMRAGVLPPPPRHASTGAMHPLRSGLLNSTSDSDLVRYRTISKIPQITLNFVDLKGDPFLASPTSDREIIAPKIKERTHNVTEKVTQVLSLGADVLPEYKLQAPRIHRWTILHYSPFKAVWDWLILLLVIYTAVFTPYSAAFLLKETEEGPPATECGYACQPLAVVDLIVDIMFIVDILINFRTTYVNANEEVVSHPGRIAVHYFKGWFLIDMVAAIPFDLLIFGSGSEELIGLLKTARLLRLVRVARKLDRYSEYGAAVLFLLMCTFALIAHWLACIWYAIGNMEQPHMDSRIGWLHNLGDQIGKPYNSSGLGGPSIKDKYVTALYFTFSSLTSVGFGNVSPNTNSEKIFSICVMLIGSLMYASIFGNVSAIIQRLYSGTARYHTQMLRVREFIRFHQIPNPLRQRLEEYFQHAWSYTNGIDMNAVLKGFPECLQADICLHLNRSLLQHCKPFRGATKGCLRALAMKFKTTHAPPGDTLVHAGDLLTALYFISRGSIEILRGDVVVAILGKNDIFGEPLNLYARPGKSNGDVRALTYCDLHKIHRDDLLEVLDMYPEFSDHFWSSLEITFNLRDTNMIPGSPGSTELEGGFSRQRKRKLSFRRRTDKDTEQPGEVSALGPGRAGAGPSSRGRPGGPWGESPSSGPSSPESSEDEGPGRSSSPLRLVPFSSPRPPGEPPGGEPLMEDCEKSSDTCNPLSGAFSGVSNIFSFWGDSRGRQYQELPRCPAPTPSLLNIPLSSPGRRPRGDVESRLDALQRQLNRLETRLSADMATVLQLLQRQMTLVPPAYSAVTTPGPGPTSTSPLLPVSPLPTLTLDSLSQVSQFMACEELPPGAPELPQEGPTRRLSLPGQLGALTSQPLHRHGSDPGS

Structure (SMILES)	IC50 (human NPY Y1 receptor) [nM]	Activity for Human ERG (human ERG (hERG); [1]) [µM]	Activity for Human ERG (human ERG (hERG); [2]) [µM]
CCc1oc(CC(O)c2cc(N3C4CCC3COC4)cc(NCC(F)(F)F)n2)nc1C (single isomer, unassigned) [Example 21]	26	14	
Cc1nc(SCc2cc(N3C4CCC3COC4)cc(NCC#N)n2)sc1C [Example 1]	16	33	
Cc1nc(SCc2cc(N3CCC(F)(F)CC3)cc(NCC(F)(F)F)n2)nn1C [Example 5, 4-(4,4-difluoro-1-piperidinyl)-6-{[(1,5-dimethyl-1H-1,2,4-triazol-3-yl)thio]methyl}-N-(2,2,2-trifluoroethyl)-2-pyridinamine]	17	16	
Cc1cc(SCc2cc(N3CCC(F)(F)CC3)cc(NCC(F)(F)F)n2)nn1C [Example 9, 4-(4,4-difluoro-1-piperidinyl)-6-{[(1,5-dimethyl-1H-pyrazol-3-yl)thio]methyl}-N-(2,2,2-trifluoroethyl)-2-pyridinamine]	2.2	5.3	
O=S1(=O)CCN(c2cc(CSc3nc4c(o3)CCCC4)nc(NCC(F)(F)F)c2)CC1 [Example 12]	27.5	14	
Cc1nc(SCc2cc(N3CCCCCC3)cc(NCC(F)(F)F)n2)cn1C [Example 13, 4-(1-azepanyl)-6-{[(1,2-dimethyl-1H-imidazol-4-yl)thio]methyl}-N-(2,2,2-trifluoroethyl)-2-pyridinamine]	44	8.2	
Cc1cc(CCc2cc(N3CCC(F)(F)CC3)cc(NCC#N)n2)nn1C [Example 32, ({4-(4,4-difluoro-1-piperidinyl)-6-[2-(1,5-dimethyl-1H-pyrazol-3-yl)ethyl]-2-pyridinyl}amino)acetonitrile]	10	11	
Cc1nc(SCc2cc(N3CCSCC3)cc(NCC#N)n2)n(C)c1C [Example 34, [(4-(4-thiomorpholinyl)-6-{[(1,4,5-trimethyl-1H-imidazol-2-yl)thio]methyl}-2-pyridinyl)amino]acetonitrile]	6.5	7.3	
COC(=O)CNc1cc(N2C3CCC2COC3)cc(CSc2nc(C)c(C)s2)n1 [Example 38, {[6-{[(4,5-dimethyl-1,3-thiazol-2-yl)thio]methyl}-4-(3-oxa-8-azabicyclo[3,2,1]octo-8-yl)-2-pyridinyl]amino}acetic acid methyl ester]	2.8	7.4	
Cc1nc(SCc2cc(N3CCC(F)(F)CC3)cc(NCCS(C)(=O)=O)n2)oc1C [Example 48, 4-(4,4-difluoro-1-piperidinyl)-6-{[(4,5-dimethyl-1,3-oxazol-2-yl)thio]methyl}-N-[2-(methylsulfonyl)ethyl]-2-pyridinamine]	16	5.9	
CCc1nnc(SCc2cc(N3CCOCC3)cc(NCc3cccc(NC(C)=O)c3)n2)s1 [reference compound]			0.57
CCc1nnc(SCc2cc(N3CCOCC3)cc(NCc3cccc(O)c3)n2)s1 [reference compound]			0.16
CCc1nnc(SCc2cc(N3CCOCC3)cc(NCc3cccc(OC)c3)n2)s1 [reference compound]			0.028
